Columns and labels:
[1] = molecular target: farnesyl protein transferase (Homo sapiens, UniProt P49354+P49356); experiment: FPT IC50 (inhibition of farnesyl protein transferase, in vitro enzyme assay); format: biochemical
Procedure: (§1) FPT IC50 (inhibition of farnesyl protein transferase, in vitro enzyme assay), COS Cell IC50 (Cell-Based Assay), GGPT IC50 (inhibition of geranylgeranyl protein transferase, in vitro enzyme assay), Cell Mat Assay, and anti-tumor activity (in vivo anti-tumor studies) are determined by the assay procedures described in WO 95/10516.

COS Cell = COS Cell IC50 (Cell-Based Assay)
Procedure: as §1

C/C(CCC(=O)N1CCC([C@H]2c3ncc(Br)cc3CCc3cc(Cl)cc(Br)c32)CC1)=N\O [Example 8]
IC50 [1]: 4.9 nM
IC50 (COS Cell): 52 nM

CC(=O)CC(=O)CCC(=O)N1CCC([C@H]2c3ncc(Br)cc3CCc3cc(Cl)cc(Br)c32)CC1 [Example 5]
IC50 [1]: 9.2 nM
IC50 (COS Cell): 175 nM

O=C(/C(=N\O)c1ccccc1)N1CCC([C@H]2c3ncc(Br)cc3CCc3cc(Cl)cc(Br)c32)CC1 [Example 9]
IC50 [1]: > 150 nM

CC(=O)CCC(=O)N1CCC([C@H]2c3ncc(Br)cc3CCc3cc(Cl)cc(Br)c32)CC1 [Example 3]
IC50 [1]: 3.4 nM
IC50 (COS Cell): 54 nM

CC(=O)C(=O)N1CCC([C@H]2c3ncc(Br)cc3CCc3cc(Cl)cc(Br)c32)CC1 [Example 6]
IC50 [1]: 46 nM

CC(=O)CCCC(=O)N1CCC([C@H]2c3ncc(Br)cc3CCc3cc(Cl)cc(Br)c32)CC1 [Example 4]
IC50 [1]: 7.6 nM
IC50 (COS Cell): 10 nM

CC(CCC(=O)N1CCC([C@H]2c3ncc(Br)cc3CCc3cc(Cl)cc(Br)c32)CC1)=NNC(=O)C(N)=O [Example 13]
IC50 [1]: 6.9 nM

O=C(CC/C(=N\O)c1ccccc1)N1CCC([C@H]2c3ncc(Br)cc3CCc3cc(Cl)cc(Br)c32)CC1 [Example 10]
IC50 [1]: 4.7 nM

C/C(CCC(=O)N1CCC([C@H]2c3ncc(Br)cc3CCc3cc(Cl)cc(Br)c32)CC1)=N/O [Example 7]
IC50 [1]: 11 nM

CC(CCC(=O)N1CCC([C@H]2c3ncc(Br)cc3CCc3cc(Cl)cc(Br)c32)CC1)=NNC(N)=O [Example 12]
IC50 [1]: 9.7 nM

CO/N=C(\CCC(=O)N1CCC([C@H]2c3ncc(Br)cc3CCc3cc(Cl)cc(Br)c32)CC1)c1ccccc1 [Example 11]
IC50 [1]: 88 nM

O=C(CCC(=O)N1CCC([C@H]2c3ncc(Br)cc3CCc3cc(Cl)cc(Br)c32)CC1)c1ccccc1 [Example 1]
IC50 [1]: 21 nM

O=C(C(=O)N1CCC([C@H]2c3ncc(Br)cc3CCc3cc(Cl)cc(Br)c32)CC1)c1ccccc1 [Example 2]
IC50 [1]: 65 nM
